Data on 1 molecule can be found in patent US20230013336A1, “SYNECHOCOCCUS ELONGATUS MUTANTS, VARIANTS AND USES THEREOF TO PRODUCE AN ESSENTIAL AMINO ACID” (Purdue Research Foundation, priority 2021, published 2023).

SMILES strings stand for the structures.

In the test the test system is PCC 11801. The experiment in a line: MMS mutagenesis kill rate. Format: cell-based, Synechococcus elongatus sp. PCC 11801. The following applies: 1% (v/v) MMS for 90 seconds, quenched with 5% sodium thiosulfate. The method, then:
Random mutagenesis was performed by modifying a previously described protocol (Deshpande et al. (2020), infra) with methylmethanesulfonate (MMS) and ultra-violet (UV) irradiation as the mutagens. Cells were prepared for random mutagenesis by pelleting exponentially growing cultures (OD ˜0.6-1) of PCC 11801 and resuspending in 1 mL of fresh BG-11M media.
For MMS mutagenesis, 1% (v/v) MMS (Sigma-Aldrich, St. Louis, Mo.) was added for 90 seconds, and the reaction was quenched by the addition of 5% (w/w) sodium thiosulfate solution to yield a ˜85-95% kill rate. For UV mutagenesis, the culture was subjected to 90 seconds of UV light to yield a kill rate of ˜90%.
The mutagenized cultures were incubated at 38° C. overnight in the dark before selection. To select for overproducers, the phenylalanine (Phe) analog 3-(2-thienyl)-dl-alanine (Sigma-Aldrich, St. Louis, Mo.) was applied to BG-11M agar plates in concentrations ranging from 0.5-2 mg/ml. The wild-type and mutagenized cultures were diluted and spread on BG-11M (to test kill rate) and BG-11M analog-containing plates, and were incubated at 38° C. until colonies appeared. Colonies (i.e. variant Synechococcus elongatus sp. strains) that successfully grew on analog selection plates were picked (e.g., selected) and re-streaked on selective plates for at least three rounds to enable complete segregation of mutations.

As for `COS(C)(=O)=O` [MMS, methylmethanesulfonate], the kill rate is listed as 85-95%.
